Key:
[1] = target: T1, human vasopressin V1b receptor (Homo sapiens, UniProt P47901); assay: biochemical
T1 sequence (P47901 1-424): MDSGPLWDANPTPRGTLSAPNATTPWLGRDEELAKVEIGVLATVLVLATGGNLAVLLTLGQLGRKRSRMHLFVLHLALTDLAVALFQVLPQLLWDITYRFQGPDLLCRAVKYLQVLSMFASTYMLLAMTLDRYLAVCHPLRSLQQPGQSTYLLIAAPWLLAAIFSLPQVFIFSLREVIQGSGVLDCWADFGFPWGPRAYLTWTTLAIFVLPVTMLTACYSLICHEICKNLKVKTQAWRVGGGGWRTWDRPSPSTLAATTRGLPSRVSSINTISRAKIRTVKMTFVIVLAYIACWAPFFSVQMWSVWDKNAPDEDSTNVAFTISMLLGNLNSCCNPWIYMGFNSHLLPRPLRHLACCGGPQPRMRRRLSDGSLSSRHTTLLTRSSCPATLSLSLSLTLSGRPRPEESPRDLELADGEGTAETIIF

[2] = target: human vasopressin V1a receptor (Homo sapiens, UniProt P37288); assay: Vasopressin V1a receptor binding assay (125I-AVP displacement, CHO-K1 membranes); details: selectivity quotient, human V1a vs human V1b receptor binding
Sequence of human vasopressin V1a receptor (P37288 whole entry): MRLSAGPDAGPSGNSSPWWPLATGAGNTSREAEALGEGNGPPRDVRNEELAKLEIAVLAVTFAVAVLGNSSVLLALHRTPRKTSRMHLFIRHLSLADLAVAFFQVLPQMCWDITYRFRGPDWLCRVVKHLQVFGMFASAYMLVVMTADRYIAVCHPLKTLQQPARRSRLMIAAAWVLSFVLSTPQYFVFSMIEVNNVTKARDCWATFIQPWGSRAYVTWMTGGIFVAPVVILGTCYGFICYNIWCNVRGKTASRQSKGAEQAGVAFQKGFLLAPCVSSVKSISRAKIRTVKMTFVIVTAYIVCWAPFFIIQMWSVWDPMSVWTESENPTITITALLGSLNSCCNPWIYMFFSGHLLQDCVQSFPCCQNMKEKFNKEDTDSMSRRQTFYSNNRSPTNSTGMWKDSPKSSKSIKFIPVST

Row | SMILES | Ki [1] [nM] | Ki(h-V1a)/Ki(h-V1b) [2]
1 | CCOc1ncccc1[C@]1(NC(=O)N2CC(N3CCC(N4CCC(OC)CC4)CC3)C2)C(=O)N(S(=O)(=O)c2ccc(OC)cc2OC)c2ccc(C#N)cc21 [Example 42, (S)—N-(5-Cyano-1-((2,4-dimethoxyphenyl)sulfonyl)-3-(2-ethoxypyridin-3-yl)-2-oxoindolin-3-yl)-3-(4-methoxy-[1,4′-bipiperidin]-1′-yl)azetidine-1-carboxamide] | 1 to 10 | +++ (>75)
2 | CCOc1ncccc1[C@]1(NC(=O)N2CC(N3CCC(N4CCC(O)CC4)CC3)C2)C(=O)N(S(=O)(=O)c2ccc(OC)cc2OC)c2ccc(C#N)cc21 [Example 44, (S)—N-(5-Cyano-1-((2,4-dimethoxyphenyl)sulfonyl)-3-(2-ethoxypyridin-3-yl)-2-oxoindolin-3-yl)-3-(4-hydroxy-[1,4′-bipiperidin]-1′-yl)azetidine-1-carboxamide] | < 1 | +++ (>75)
3 | COc1ccc(S(=O)(=O)N2C(=O)[C@@](NC(=O)N3CC(N4CCC(N5CCOCC5)CC4)C3)(c3cc(OC)ccc3OC)c3cc(C#N)ccc32)c(OC)c1 [Example 45, (S)—N-(5-Cyano-3-(2,5-dimethoxyphenyl)-1-((2,4-dimethoxyphenyl)sulfonyl)-2-oxoindolin-3-yl)-3-(4-morpholinopiperidin-1-yl)azetidine-1-carboxamide] | < 1 | + (10-<25)
4 | COc1ccc(S(=O)(=O)N2C(=O)[C@@](NC(=O)N3CC(N4CCC(N(C)C5COC5)CC4)C3)(c3cc(OC)ccc3OC)c3cc(C#N)ccc32)c(OC)c1 [Example 46, (S)—N-(5-Cyano-3-(2,5-dimethoxyphenyl)-1-((2,4-dimethoxyphenyl)sulfonyl)-2-oxoindolin-3-yl)-3-(4-(methyl(oxetan-3-yl)amino)piperidin-1-yl)azetidine-1-carboxamide] | < 1 | ++ (25-75)

Results, then the compound that gave them:

Row | Ki [1] [nM] | Ki(h-V1a)/Ki(h-V1b) [2] | SMILES
5 | 1 to 10 | +++ (>75) | CCOc1ncccc1[C@]1(NC(=O)N2CC(N3CCC(N4CC(OC)C4)CC3)C2)C(=O)N(S(=O)(=O)c2ccc(OC)cc2OC)c2ccc(C#N)cc21 [Example 41, (S)—N-(5-Cyano-1-((2,4-dimethoxyphenyl)sulfonyl)-3-(2-ethoxypyridin-3-yl)-2-oxoindolin-3-yl)-3-(4-(3-methoxyazetidin-1-yl)piperidin-1-yl)azetidine-1-carboxamide]
6 | 1 to 10 | +++ (>75) | CCOc1ncccc1[C@]1(NC(=O)N2CC(N3CCC(N4CC(O)C4)CC3)C2)C(=O)N(S(=O)(=O)c2ccc(OC)cc2OC)c2ccc(C#N)cc21 [Example 43, (S)—N-(5-Cyano-1-((2,4-dimethoxyphenyl)sulfonyl)-3-(2-ethoxypyridin-3-yl)-2-oxoindolin-3-yl)-3-(4-(3-hydroxyazetidin-1-yl)piperidin-1-yl)azetidine-1-carboxamide]

— patent publication US9840495B2, “Oxindole derivatives carrying a piperidyl-substituted azetidinyl substituent and use thereof for treating vasopressine-related diseases” (AbbVie Deutschland GmbH & Co. KG, priority 2013, dated 2017)
